What was measured:
[1] = test system: A/California/07/2009 virus (H1N1; CA07); design: species or system BALB/c mice; conditions: mouse, in vivo; hydrate
influenza virus = format: in vivo, mice; conditions: nasal immunization with vaccine + compound, 100 μg/dose (saponin 10 μg/dose), Day 0, 14, 28
[2] = test system: A/California/07/2009 virus (H1N1; CA07); design: species or system BALB/c mice; conditions: mouse, in vivo; hydrate; remark: listed apart in the source

C[C@@H]1O[C@@H](OC[C@H]2O[C@@H](Oc3c(-c4ccc(O)c(O)c4)oc4cc(O)cc(O)c4c3=O)[C@H](O)[C@@H](O)[C@@H]2O)[C@H](O)[C@H](O)[C@H]1O [Rutin hydrate]
Antibody titers in secondary screening, Vaccine + compound [1]: 720
Antibody titers (IgG) (influenza virus): 280
Antibody titers in primary screening, Vaccine + compound [2]: 1280.00
